Experiments:
hLXRa = biological target: T1, hLXRa (Homo sapiens, UniProt Q13133); assay: hLXRa binding
T1 sequence (Q13133 1-447): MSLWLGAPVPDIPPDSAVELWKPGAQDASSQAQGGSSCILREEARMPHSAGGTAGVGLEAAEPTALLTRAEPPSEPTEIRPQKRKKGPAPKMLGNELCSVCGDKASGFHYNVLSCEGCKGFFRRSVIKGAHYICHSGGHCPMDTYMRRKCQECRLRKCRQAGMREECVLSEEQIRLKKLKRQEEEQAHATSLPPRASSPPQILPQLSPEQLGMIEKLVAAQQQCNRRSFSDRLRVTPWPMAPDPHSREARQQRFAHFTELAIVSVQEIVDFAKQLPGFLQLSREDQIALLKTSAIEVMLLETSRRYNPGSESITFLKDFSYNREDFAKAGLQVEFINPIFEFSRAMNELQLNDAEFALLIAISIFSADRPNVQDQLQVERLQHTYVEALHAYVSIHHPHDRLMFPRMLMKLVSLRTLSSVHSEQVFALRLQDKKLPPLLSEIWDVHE

ABCG1 [1] = assay: Gene regulation by LXR: ABCG1, human foreskin fibroblasts (serum-free); type: cell-based
human LXRβ = biological target: T2, human LXRβ (Homo sapiens, UniProt P55055); assay: Ligand-binding test procedure for human LXRβ (3H T0901317 tracer, flash plates); details: read-out: hLXRb binding IC50
T2 construct: made in house; host or cells: E. coli
T2 sequence (P55055 1-460): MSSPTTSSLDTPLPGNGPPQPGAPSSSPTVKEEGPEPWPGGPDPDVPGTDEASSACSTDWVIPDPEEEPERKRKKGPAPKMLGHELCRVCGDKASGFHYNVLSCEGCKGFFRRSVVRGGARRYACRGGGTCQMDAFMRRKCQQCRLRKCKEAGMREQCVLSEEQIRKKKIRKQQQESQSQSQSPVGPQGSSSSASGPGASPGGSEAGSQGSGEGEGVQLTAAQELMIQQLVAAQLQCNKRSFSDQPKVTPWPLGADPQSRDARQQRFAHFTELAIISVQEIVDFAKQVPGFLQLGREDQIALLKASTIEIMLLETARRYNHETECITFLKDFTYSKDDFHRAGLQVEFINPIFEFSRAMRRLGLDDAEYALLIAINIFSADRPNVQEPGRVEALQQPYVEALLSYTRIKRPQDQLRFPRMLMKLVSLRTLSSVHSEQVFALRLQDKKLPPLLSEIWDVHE
Description: LIGAND-BINDING TEST PROCEDURE FOR HUMAN LXRβ.
Buffer: 100 mM KCl, 100 mM TRIS (pH 7.4 at +4° C.), 8.6% glycerol, 0.1 mM PMSF*, 2 mM MTG*, 0.2% CHAPS (* not used in wash buffer)
Receptor source: E. coli extracted from cells expressing biotinylated hLXRβ. Extract was made in a similar buffer as above, but with 50 mM TRIS.
Washed streptavidin and coated flash plates with wash buffer. Diluted receptor extract to give Bmax˜4000 cpm and add to the wells. Wrapped the plates in aluminum foil and stored them at +4° C. overnight.
Made a dilution series in DMSO of the test ligands. Made a 5 nM solution of the radioactive tracer in buffer. Mixed 250 μL diluted tracer with 5 μL of the test ligand from each concentration of the dilution series. Washed the receptor-coated flash plates. Added 200 μL per well of the ligand/radiolabel mixture to the receptor-coated flash plates. Wrapped the plates in aluminum foil and incubate at +4° C. over night.
Aspirated wells, and washed the flashed plates. Sealed the plate. Measured the remaining radioactivity in the plate.

ABCG1 [2] = assay: Gene regulation by LXR: ABCG1, KERTr (serum-free); type: cell-based

SMILES	IC50 (hLXRa)	IC50 (human LXRβ)	EC50 (ABCG1 [2])	EC50 (ABCG1 [1])	EC50 (ABCG1 [1]; Fibroblast)
CC(C)c1cnc2c(Cl)cccc2c1-c1cccc(OC(=O)c2cccc(S(=O)(=O)N3CCOCC3)c2)c1 [Example 37, 3-(8-chloro-3-isopropylauinolin-4-yl)phenyl 3-(morpholin-4-ylsulfonyl)benzoate]	202 nM	69 nM	2.42 nM	60 nM	
CCCc1cnc2c(C(F)(F)F)cccc2c1-c1cccc(OC(=O)c2cccc(S(C)(=O)=O)c2)c1 [Example 20, 3-[3-propyl-8-(trifluoromethyl)quinolin-4-yl]phenyl 3-(methylsulfonyl)benzoate]	2.9 nM	2 nM	4.49 nM		11 nM
CS(=O)(=O)c1cccc(C(=O)Oc2cccc(-c3c(Cc4ccccc4)cnc4c(C(F)(F)F)cccc34)c2)c1 [Example 23, 3-[3-benzyl-8-(trifluoromethyl)quinolin-4-yl]phenyl 3-(methylsulfonyl)benzoate]	5.8 nM	2.7 nM	25 nM		16 nM
Cc1ccc(S(C)(=O)=O)cc1C(=O)Oc1cccc(-c2c(C(C)C)cnc3c(Cl)cccc23)c1 [Example 2, 3-(8-chloro-3-isopropyiquinolin-4-yl)phenyl 2-methyl-5-(methylsulfonyl)benzoate]	11.7 nM	3.7 nM	1.46 nM		33 nM
CCS(=O)(=O)c1cccc(C(=O)Oc2cccc(-c3c(C(C)C)cnc4c(C(F)(F)F)cccc34)c2)c1 [Example 6, 3-[3-isopropyl-8-(trifluoromethyl)quinolin-4-yl]phenyl-3-(ethylsulfonyl)benzoate]	16.3 nM	4 nM	1.48 nM		37 nM
CCS(=O)(=O)c1cccc(C(=O)Oc2cccc(-c3c(C)cnc4c(C(F)(F)F)cccc34)c2)c1 [Example 26]	52 nM	8.6 nM	250 nM		250 nM
CCS(=O)(=O)c1cccc(C(=O)Oc2cccc(-c3c(C(C)C)cnc4c(Cl)cccc34)c2)c1 [Example 1, 3-(8-chloro-3-isopromilquinolin-4-yl)phenyl 3-(ethylsulfonyl)benzoate]	16.2 nM	3.7 nM	0.76 nM		59 nM
CS(=O)(=O)c1cccc(C(=O)Oc2cccc(-c3ccnc4c(C(F)(F)F)cccc34)c2)c1 [Example 21, 3-[8-(trifluoromethyl)quinolin-4-yl]phenyl 3-(methylsulfonyl)benzoate]	120 nM	20 nM	384 nM		634 nM
CC(C)c1cnc2c(C(F)(F)F)cccc2c1-c1cccc(OC(=O)c2ccc(S(C)(=O)=O)cc2)c1 [Example 8, 3-[3-isopropyl-8-(trifluoromethyl)quinolin-4-yl]phenyl 4-(methylsulfonyl)benzoate]	54 nM	12.5 nM	1.9 nM		38 nM

Continued, in another order:

IC50 (hLXRa)	IC50 (human LXRβ)	EC50 (ABCG1 [2])	SMILES	EC50 (ABCG1 [1])	EC50 (ABCG1 [1]; Fibroblast)
8.7 nM	5.6 nM	0.53 nM	CC(C)c1cnc2c(Cl)cccc2c1-c1cccc(OC(=O)c2cccc(CS(C)(=O)=O)c2)c1 [Example 35, 3-(8-chloro-3-isopropylauinolin-4-yl)phenyl 3-[(methylsulfonyl)methyl]benzoate]	11 nM	
105 nM	19 nM	214 nM	Cc1cnc2c(C(F)(F)F)cccc2c1-c1cccc(OC(=O)c2cc(S(C)(=O)=O)ccc2Cl)c1 [Example 28, 3-[3-methyl-8-(trifluoromethyl)quinolin-4-yl]phenyl 2-chloro-5-(methylsulfonyl)benzoate]		67 nM
154 nM	34 nM	167 nM	Cc1cnc2c(C(F)(F)F)cccc2c1-c1cccc(OC(=O)c2ccc(S(C)(=O)=O)cc2)c1 [Example 29, 3-[3-methyl-8-(trifluoromethyl)quinolin-4-yl]phenyl 4-(methylsulfonyl)benzoate]		250 nM
7.9 nM	3 nM	2.86 nM	CCS(=O)(=O)c1cccc(C(=O)Oc2cccc(-c3c(-c4ccccc4)cnc4c(Cl)cccc34)c2)c1 [Example 32, 3-(8-chloro-3-phenylquinolin-4-yl)phenyl 3-(ethylsulfonyl)benzoate]		6.8 nM

From patent US20120010205A1, “NOVEL QUINOLINE ESTERS USEFUL FOR TREATING SKIN DISORDERS” (Wyeth LLC, priority 2010, published 2012)
